Test results published in article PMC4467461, “Small-molecule activation of SERCA2a SUMOylation for the treatment of heart failure” (Nature Communications, 2015).

Target: T1, SUMO E1 (Homo sapiens, UniProt Q9UBE0+Q9UBT2)
T1 construct: purchased R&D Systems
T1 sequence (Q9UBE0 1-346): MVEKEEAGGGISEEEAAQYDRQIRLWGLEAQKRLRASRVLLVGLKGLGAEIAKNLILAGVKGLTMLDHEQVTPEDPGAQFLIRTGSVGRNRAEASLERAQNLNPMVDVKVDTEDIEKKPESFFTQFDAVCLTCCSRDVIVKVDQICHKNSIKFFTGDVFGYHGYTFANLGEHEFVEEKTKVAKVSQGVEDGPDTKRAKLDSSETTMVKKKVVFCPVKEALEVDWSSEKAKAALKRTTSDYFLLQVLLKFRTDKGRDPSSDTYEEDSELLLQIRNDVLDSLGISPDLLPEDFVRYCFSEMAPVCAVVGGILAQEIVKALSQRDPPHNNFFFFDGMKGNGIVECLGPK
T1 sequence (Q9UBT2 1-640): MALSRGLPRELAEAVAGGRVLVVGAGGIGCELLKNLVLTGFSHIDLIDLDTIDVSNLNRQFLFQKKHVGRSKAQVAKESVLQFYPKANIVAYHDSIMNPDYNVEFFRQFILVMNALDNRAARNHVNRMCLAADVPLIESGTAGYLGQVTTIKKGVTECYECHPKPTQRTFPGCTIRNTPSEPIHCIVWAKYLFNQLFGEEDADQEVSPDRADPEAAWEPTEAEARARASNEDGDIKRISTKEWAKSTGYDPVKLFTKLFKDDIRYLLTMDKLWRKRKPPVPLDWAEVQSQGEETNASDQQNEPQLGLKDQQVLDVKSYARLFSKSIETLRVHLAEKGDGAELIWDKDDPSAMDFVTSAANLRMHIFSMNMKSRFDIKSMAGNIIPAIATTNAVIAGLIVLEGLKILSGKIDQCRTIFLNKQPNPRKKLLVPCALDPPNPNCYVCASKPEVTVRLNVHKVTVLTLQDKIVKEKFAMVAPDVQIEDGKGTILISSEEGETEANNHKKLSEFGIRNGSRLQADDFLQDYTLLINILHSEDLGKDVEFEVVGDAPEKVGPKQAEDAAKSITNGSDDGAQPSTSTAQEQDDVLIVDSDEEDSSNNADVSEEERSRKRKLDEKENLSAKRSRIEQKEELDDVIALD
Assay: In-vitro E1-SUMO-1 and E1-dependent E2-SUMO-1 thioester formation (gel shift / western blot)
Assay type: biochemical
Method: Figure 3 SUMO-specific activating enzyme, E1, is a direct target of N106. Mechanism of action of N106 on individual steps in the SUMOylation cascade in vitro. (a) Inorganic pyrophosphate resulting from ATP hydrolysis in E1-catalysed SUMO-1 activation in the presence of increasing concentration of N106 compound was assessed by fluorogenic pyrophosphate assay kit. Recombinant human SUMO-specific E1 (0.05 μM), human Ubc9 (0.25 μM), human SUMO-1 (12.5 μM) and ATP (1 mM) were incubated with increasing concentration of N106 for 30 min at 37 °C and quantified using a fluorescence microplate reader. (b) The SAE2-SUMO-1 conjugation was detected followed by western blotting with anti-SAE2 antibodies. SUMO E1 (0.05 μM), SUMO-1 (12.5 μM) and ATP (1 mM) were co-incubated with increasing concentration of N106 for 30 min at 37 °C. The reaction mixtures were separated on 7.5% SDS–PAGE gel under non-reducing conditions. (c) E2-SUMO-1 conjugation was visualized by western blotting with anti-Ubc9 antibody. SUMO E1 (0.05 μM), Ubc9 (0.25 μM), SUMO-1 (12.5 μM) and ATP (1 mM) were incubated without or with increasing concentration of N106 for 30 min at 37 °C. […] (e) ATP hydrolytic activity of WT and mutant SUMO E1 are determined. (f) The E1-SUMO-1 conjugation was detected followed by western blot analysis with anti-SAE2 antibody. *The SAE2-SUMO-1 conjugated bands. […]
Biochemical activity of SUMO-specific E1 enzymes was examined by ATPase assay and in-vitro gel-shifting assays. ATP hydrolysis activity of E1 enzymes was measured by using pyrophosphate assay kit (Abcam Inc.). […] The E1-thioester formation was analysed in reaction mixtures containing 0.05 μM E1, 12.5 μM SUMO-1 and 1 mM ATP with N106 or DMSO. The E1-dependent E2-SUMO-1 thioester formation was assessed using reaction containing 0.05 μM E1, 0.25 μM E2, 12.5 μM SUMO-1 and 1 mM ATP with N106 or DMSO. Assays were incubated at 37 °C for 30 min and were mixed with non-reducing sample buffer, and analysed in non-reducing condition. Western blotting using antibodies against SAE2 and Ubc9 detected the SUMO conjugations. […]

- SUMO-1 conjugation to SUMO E1 and E1-dependent thioester bond formation between SUMO E2 and SUMO-1 (at 50 μM concentration): less pronounced
- SUMO-1 conjugation to SUMO E1 and E1-dependent thioester bond formation between SUMO E2 and SUMO-1 (at over 100 μM concentration): inhibited
Structure (SMILES): COc1ccc(-c2nnc(Nc3nc4c(OC)cccc4s3)o2)cc1 [Compound N106, N-(4-methoxybenzo[d]thiazol-2-yl)-5-(4-methoxyphenyl)-1,3,4-oxadiazol-2-amine]
- maximal tolerated doses for in-vitro thioester formation between the SUMO E1 and SUMO-1 (30 min at 37 °C): ~20 µM
